Source: patent US8809280B2, “Therapeutic peptides” (Lytix Biopharma AS, priority 2009, dated 2014)
Converted amounts (≈) assume the structure as drawn. “And” between values parts separate entries of the source, which are not always exact repeats. Equal values may be shown once. Read-outs that look alike come from different tables or passages of the source. Starred links: 1 amine or outer side, 2 acyl side, 3 side chain; linkers in the order of their positions; H or OH if unused. Non-standard residues stand in square brackets, D forms with d. Residues, ends and D or L forms follow the SMILES beside them. X1 = Cc1cc(C)cc(CC(CN[*:1])(Cc2cc(C)cc(C)c2)C(=O)[*:2])c1; X4 = O=C(C(CN[*:1])(Cc1ccc(F)cc1)Cc1ccc(F)cc1)[*:2]; X2 = O=C(C(CCCc1ccccc1)(CCCc1ccccc1)CN[*:1])[*:2]; X5 = O=C(C(CCC1CCCCC1)(CCC1CCCCC1)CN[*:1])[*:2]; X3 = O=C(C(CN[*:1])(Cc1ccccc1)Cc1ccccc1)[*:2]

What was measured:
Assay type in all cases: cell-based
MRC-5 = test: Toxicity assay MRC-5; conditions: highest concentration tested 500 μg/ml; for IC50: Homo sapiens, MRC5, Example 2; for Toxicity MRC-5: Example 2
Procedure: Cells for Toxicity Studies Used MRC-5 and human RBC MRC-5 assay: 500 μg/ml

[1] = tested on: Staphylococcus aureus (ATTC 25923); test: microbe, parasite or virus in culture; conditions: Example 2, values separated by / are repeat tests; for MIC: Staphylococcus aureus, read-out: Antimicrobial potency (MIC) S. aureus
Procedure, shortened: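 Di-TFA salts tested in duplicate at 0.5–200 μg/ml against exponential-phase bacteria at 2×10^6 cfu/ml grown in 2% peptone water. Growth judged by well turbidity, with no-peptide and gentamicin controls.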

[2] = tested on: methicillin resistant Staphylococcus epidermidis (ATCC 27626); test: microbe, parasite or virus in culture; conditions: Example 2, values separated by / are repeat tests; for MIC: Staphylococcus epidermidis, ATCC 27626 / MRSE, read-out: Antimicrobial potency (MIC) MRSE
Procedure, shortened: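 Exponentially grown bacteria (2% peptone water) at 2×10^6 cfu/ml exposed in duplicate to di-TFA salts at 0.5–200 μg/ml. Growth or no growth judged by well turbidity; no-peptide and gentamicin controls included.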

human red blood cells = test: cells; conditions: Homo sapiens, Erythrocyte; Example 2; highest concentration tested 1000 μg/ml; * low solubility in the test media; read-out: Toxicity RBC (EC50)
Procedure, shortened: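 Washed heparinized RBCs, diluted to 10% hematocrit then to 1% v/v final, incubated with compounds in PBS (1–1000 μg/mL) for 1 h at 37 °C with agitation. Hemoglobin release read at 405 nm against PBS (0%) and 0.1% Triton X-100 (100%); value reported is concentration giving 50% hemolysis.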

[3] = tested on: methicillin resistant Staphylococcus aureus (ATCC 33591); test: microbe, parasite or virus in culture; conditions: Example 2, values separated by / are repeat tests; for MIC: Staphylococcus aureus, ATCC 33591 / MRSA, read-out: Antimicrobial potency (MIC) MRSA
Procedure, shortened: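 Di-TFA salts tested in duplicate at 200 down to 0.5 μg/ml against exponentially grown bacteria at 2×10^6 cfu/ml. Growth judged by well turbidity, with no-peptide and gentamicin controls.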

A20 = test: cells; conditions: for Anti-Cancer Selectivity MRC-5/A20: ratio of MRC-5 to A20 values
Procedure: Cancer Cell Lines A20 or MethA Anticancer assays: 500 μg/ml

[4] = tested on: Escherichia coli (ATTC 25922); test: microbe, parasite or virus in culture; conditions: Example 2, values separated by / are repeat tests
Procedure, shortened: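 Broth dilution in 2% Bacto Peptone water, inoculum 2×10^6 cfu/ml of exponential-phase bacteria; compounds (di-TFA salts) tested in duplicate at 200 down to 0.5 μg/ml. Growth judged by well turbidity, with no-peptide negative and gentamicin positive controls.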

Compound | Anti-Cancer Selectivity MRC-5/A20 (A20) | Toxicity MRC-5 (MRC-5) | Anticancer potency (IC50) A20 (A20) [µg/mL] | also measured
CC(C)c1ccc(CC(CN)(Cc2ccc(C(C)C)cc2)C(=O)NCCN)cc1 [Compound 10, 3-amino-N-(2-aminoethyl)-2,2-bis(4-isopropylbenzyl)propanamide] | (<4.8) | – | – | IC50 (MRC-5): < 6.67 µg/mL; Antimicrobial potency (MIC) S. aureus [1]: 10 µg/mL; MIC [1]: 5 µg/mL (≈ 12.6 µM); MIC [2]: 5 µg/mL (≈ 12.6 µM); EC50 (human red blood cells): 47 µg/mL (≈ 119 µM); Antimicrobial potency (MIC) MRSA [3]: 10 µg/mL; MIC [3]: 5 µg/mL (≈ 12.6 µM); Anti-Cancer Selectivity RBC/A20 (A20; ratio of RBC EC50 to A20 IC50): 33.6
Cc1cc(C)cc(CC(CN)(Cc2cc(C)cc(C)c2)C(=O)NCCN)c1 [Compound 12, 3-amino-N-(2-aminoethyl)-2,2-bis(3,5-dimethylbenzyl)propanamide] | (>2 ) | – | – | IC50 (MRC-5): 10 µg/mL (≈ 27.2 µM); MIC [1]: 35 µg/mL (≈ 95.2 µM); Antimicrobial potency (MIC) MRSE [2]: 10 µg/mL; MIC [2]: 5 µg/mL (≈ 13.6 µM); MIC [3]: 35 µg/mL (≈ 95.2 µM); Anticancer potency (IC50) A20 (A20; Example 2, highest concentration tested 500 μg/ml, * low solubility in the test media (Table 2)): < 10 µg/mL; IC50 (A20; Mus musculus, A20, Example 2, highest concentration tested 500 μg/ml, * low solubility in the test media (Table 2), read-out: Anticancer potency (IC50) A20): < 5 µg/mL; MIC ([4]; Escherichia coli, read-out: Antimicrobial potency (MIC) E. coli): 50 µg/mL (≈ 136 µM); Antimicrobial potency (MIC) E. coli [4]: 100 µg/mL
NCCCC[C@@H](N)C(=O)N[C@H](CCCCN)C(=O)N[C@H](Cc1c[nH]c2ccccc12)C(=O)NCC(CCC1CCCCC1)(CCC1CCCCC1)C(=O)N[C@@H](Cc1c[nH]c2ccccc12)C(=O)N[C@@H](CCCCN)C(=O)N[C@@H](CCCCN)C(N)=O [Compound 15, (R)-N-((2R,9S,12S,15S)-9-((1H-indol-3-yl)methyl)-19-amino-12-(4-aminobutyl)-15-carbamoyl-6,6-bis(2-cyclohexylethyl)-1-(1H-indol-3-yl)-3,7,10,13-tetraoxo-4,8,11,14-tetraazanonadecan-2-yl)-6-amino-2-((R)-2,6-diaminohexanamido)hexanamide] (H-[dK][dK][dW][X5]WKK-NH2) | 3.0 | 45.7 µg/mL | 15.0 | –
NCCCC[C@@H](N)C(=O)N[C@H](CCCCN)C(=O)N[C@H](Cc1c[nH]c2ccccc12)C(=O)NCC(Cc1ccccc1)(Cc1ccccc1)C(=O)N[C@@H](Cc1c[nH]c2ccccc12)C(=O)N[C@@H](CCCCN)C(=O)N[C@@H](CCCCN)C(N)=O [Compound 16, (R)-N-((2R,9S,12S,15S)-9-((1H-indol-3-yl)methyl)-19-amino-12-(4-aminobutyl)-6,6-dibenzyl-15-carbamoyl-1-(1H-indol-3-yl)-3,7,10,13-tetraoxo-4,8,11,14-tetraazanonadecan-2-yl)-6-amino-2-((R)-2,6-diaminohexanamido)hexanamide] (H-[dK][dK][dW][X3]WKK-NH2) | (>1.9) | >500 µg/mL | 263 | –
NCCCC[C@@H](N)C(=O)N[C@H](CCCCN)C(=O)N[C@H](Cc1c[nH]c2ccccc12)C(=O)NCC(CCCc1ccccc1)(CCCc1ccccc1)C(=O)N[C@@H](Cc1c[nH]c2ccccc12)C(=O)N[C@@H](CCCCN)C(=O)N[C@@H](CCCCN)C(N)=O [Compound 17, (R)-N-((2R,9S,12S,15S)-9-((1H-indol-3-yl)methyl)-19-amino-12-(4-aminobutyl)-15-carbamoyl-1-(1H-indol-3-yl)-3,7,10,13-tetraoxo-6,6-bis(3-phenylpropyl)-4,8,11,14-tetraazanonadecan-2-yl)-6-amino-2-((R)-2,6-diaminohexanamido)hexanamide] (H-[dK][dK][dW][X2]WKK-NH2) | 9.1 and 5.5 | 241 µg/mL and 221 µg/mL | – | –
NCCCC[C@@H](N)C(=O)N[C@H](CCCCN)C(=O)N[C@H](Cc1c[nH]c2ccccc12)C(=O)NCC(Cc1ccc2ccccc2c1)(Cc1ccc2ccccc2c1)C(=O)N[C@@H](Cc1c[nH]c2ccccc12)C(=O)N[C@@H](CCCCN)C(=O)N[C@@H](CCCCN)C(N)=O [Compound 18, (R)-N-((2R,9S,12S,15S)-9-((1H-indol-3-yl)methyl)-19-amino-12-(4-aminobutyl)-15-carbamoyl-1-(1H-indol-3-yl)-6,6-bis(naphthalen-2-ylmethyl)-3,7,10,13-tetraoxo-4,8,11,14-tetraazanonadecan-2-yl)-6-amino-2-((R)-2,6-diaminohexanamido)hexanamide] | 4.3 | 103 µg/mL | 24 | –
NCCCC[C@@H](N)C(=O)N[C@H](CCCCN)C(=O)N[C@H](Cc1c[nH]c2ccccc12)C(=O)NCC(Cc1ccc(F)cc1)(Cc1ccc(F)cc1)C(=O)N[C@@H](Cc1c[nH]c2ccccc12)C(=O)N[C@@H](CCCCN)C(=O)N[C@@H](CCCCN)C(N)=O [Compound 19, (R)-N-((2R,9S,12S,15S)-9-((1H-indol-3-yl)methyl)-19-amino-12-(4-aminobutyl)-15-carbamoyl-6,6-bis(4-fluorobenzyl)-1-(1H-indol-3-yl)-3,7,10,13-tetraoxo-4,8,11,14-tetraazanonadecan-2-yl)-6-amino-2-((R)-2,6-diaminohexanamido)hexanamide] (H-[dK][dK][dW][X4]WKK-NH2) | (>2.5) | >500 µg/mL | 197 | –
NCCCC[C@@H](N)C(=O)N[C@H](CCCCN)C(=O)N[C@H](Cc1c[nH]c2ccccc12)C(=O)NCC(Cc1ccc(C(F)(F)F)cc1)(Cc1ccc(C(F)(F)F)cc1)C(=O)N[C@@H](Cc1c[nH]c2ccccc12)C(=O)N[C@@H](CCCCN)C(=O)N[C@@H](CCCCN)C(N)=O [Compound 20, (R)-N-((2R,9S,12S,15S)-9-((1H-indol-3-yl)methyl)-19-amino-12-(4-aminobutyl)-15-carbamoyl-1-(1H-indol-3-yl)-3,7,10,13-tetraoxo-6,6-bis(4-(trifluoromethyl)benzyl)-4,8,11,14-tetraazanonadecan-2-yl)-6-amino-2-((R)-2,6-diaminohexanamido)hexanamide] | 7.0 | 260 µg/mL | 37 | –
CC(C)(C)c1ccc(CC(CNC(=O)[C@@H](Cc2c[nH]c3ccccc23)NC(=O)[C@@H](CCCCN)NC(=O)[C@H](N)CCCCN)(Cc2ccc(C(C)(C)C)cc2)C(=O)N[C@@H](Cc2c[nH]c3ccccc23)C(=O)N[C@@H](CCCCN)C(=O)N[C@@H](CCCCN)C(N)=O)cc1 [Compound 21, (R)-N-((2R,9S,12S,15S)-9-((1H-indol-3-yl)methyl)-19-amino-12-(4-aminobutyl)-6,6-bis(4-tert-butylbenzyl)-15-carbamoyl-1-(1H-indol-3-yl)-3,7,10,13-tetraoxo-4,8,11,14-tetraazanonadecan-2-yl)-6-amino-2-((R)-2,6-diaminohexanamido)hexanamide] | 2.9 and 3.2 | 42 µg/mL and 55.2 µg/mL | – | –
Cc1cc(C)cc(CC(CNC(=O)[C@@H](Cc2c[nH]c3ccccc23)NC(=O)[C@@H](CCCCN)NC(=O)[C@H](N)CCCCN)(Cc2cc(C)cc(C)c2)C(=O)N[C@@H](Cc2c[nH]c3ccccc23)C(=O)N[C@@H](CCCCN)C(=O)N[C@@H](CCCCN)C(N)=O)c1 [Compound 22, (R)-N-((2R,9S,12S,15S)-9-((1H-indol-3-yl)methyl)-19-amino-12-(4-aminobutyl)-15-carbamoyl-6,6-bis(3,5-dimethylbenzyl)-1-(1H-indol-3-yl)-3,7,10,13-tetraoxo-4,8,11,14-tetraazanonadecan-2-yl)-6-amino-2-((R)-2,6-diaminohexanamido)hexanamide] (H-[dK][dK][dW][X1]WKK-NH2) | 7.4 and 5.1 | 237 µg/mL and 205 µg/mL | – | –
